Test results reported in US20140000886A1, “PETROLEUM RECOVERY PROCESS AND SYSTEM” (Shell Oil Company, priority 2012, published 2014).

Assay: Oil recovery from formation core by brine displacement followed by DMS displacement
Conditions: after waterflooding with a brine solution
Procedure: Incremental recovery of oil from a formation core using an oil recovery formulation consisting of dimethyl sulfide following oil recovery from the core by water-flooding was measured to evaluate the effectiveness of DMS as a tertiary oil recovery agent.
Two 5.02 cm long Berea sandstone cores with a core diameter of 3.78 cm and a permeability between 925 and 1325 mD were saturated with a brine having a composition as set forth in Table 7.
After saturation of the cores with brine, the brine was displaced by a Middle Eastern Asphaltic crude oil having the characteristics as set forth above in Table 3 to saturate the cores with oil.
Oil was recovered from each oil saturated core by the addition of brine to the core under pressure and by subsequent addition of DMS to the core under pressure. Each core was treated as follows to determine the amount of oil recovered from the core by addition of brine followed by addition of DMS. Oil was initially displaced from the core by addition of brine to the core under pressure. A confining pressure of 1 MPa was applied to the core during addition of the brine, and the flow rate of brine to the core was set at 0.05 ml/min. The core was maintained at a temperature of 50° C. during displacement of oil from the core with brine. […]

Oil recovered, of the oil remaining in the core after the waterflood: approximately 60%
Compound: CSC [Dimethyl Sulfide, dimethyl sulfide]
